Read-outs that look alike come from different tables or passages of the source.

In general, IC50 refers to the point on the concentration scale where inhibition reaches its midpoint. Broadly, the Cmax is the maximum level reached in the sampled fluid or tissue. For orientation: Tmax means the time from dosing to the highest level. Broadly, the bioavailability is the share of a dose that reaches the circulation, judged against a reference dose that is usually intravenous. Lower therefore signals little systemic uptake. The term AUC denotes concentration integrated over time. Higher therefore signals more exposure.

One data set concerns the target T1, Human Arginase 1 (Homo sapiens, UniProt P05089).
T1 construct: made in house; host or cells: E. coli
T1 sequence (P05089 1-322): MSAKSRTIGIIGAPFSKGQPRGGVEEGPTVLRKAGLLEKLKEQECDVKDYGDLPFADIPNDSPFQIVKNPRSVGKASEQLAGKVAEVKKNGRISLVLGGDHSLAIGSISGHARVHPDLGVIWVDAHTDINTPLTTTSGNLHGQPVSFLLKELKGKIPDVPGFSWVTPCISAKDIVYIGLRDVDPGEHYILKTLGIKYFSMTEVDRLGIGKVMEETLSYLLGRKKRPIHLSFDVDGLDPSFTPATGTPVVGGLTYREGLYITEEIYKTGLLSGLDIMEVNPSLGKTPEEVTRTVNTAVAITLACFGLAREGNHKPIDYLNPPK
In words: Human Arginase 1 enzyme inhibition (thioarginine/DTNB absorbance at 412 nm). The following applies: recombinant enzyme 5 nM, 60 min, room temperature. It is filed as biochemical. The text has this:
(§1) The inhibitory effects of Examples 1-26 on the activity of Human Arginase 1 and Arginase 2 activity were quantified by measuring the formation of the thiol group from thioarginine using recombinant Arginase 1 or Arginase 2 produced from E. coli. The thiol group was detected with Ellman's reagent, 5,5′-dithiobis(2-nitrobenzoic acid) (DTNB). DTNB reacts with the thiol to give the mixed disulfide and 2-nitro-5-thiobenzoic acid (TNB) which is quantified by the absorbance of the anion (TNB^2−) at 412 nm.
(§2) The assays were run in clear 384 well plates (Greiner cat no: 781101). Various concentrations of Examples 1-26 in 300 nL DMSO were dispensed to assay plates using an Echo acoustic dispenser immediately followed by plate sealing and centrifugation. Two pre-mixes were prepared from reagents thawed immediately before addition to assay plates. Pre-mix one comprised human Arginase 1 or human Arginase 2, at a final concentration of 5 nM and 0.5 mM DTNB in assay buffer, 45 mM HEPES pH7.5, brij 35, 0.045% (w/v) and 100 μM MnCl2. Pre-mix two comprised freshly thawed 0.5 mM thioarginine in assay buffer. Fifteen microlitres of pre-mix one was dispensed to assay plates containing Examples 1-9, centrifuged and incubated for 30 minutes at room temperature prior to adding fifteen microlitres of pre-mix two.
(§3) Assay plates were centrifuged prior to reading absorbance at 412 nm in a Pherastar multi-mode plate reader to collect data at time point 0 (T0). The plates were incubated at room temperature for 60 min prior to reading again to collect data at time point 1 (T1). Data is derived by subtracting the A412 signal measured at T0 (time point 0) from that measured at T1 (time point 1). The data was transformed to % effect using the equation:
(§4) Compound % effect=100*[(X−min)/(max−min)],
(§5) where X represents the normalized value for the compound based on the Min (vehicle) and Max (reference compound) inhibition control.
(§6) The concentration of Examples 1-26 that inhibited the activity by 50% (i.e.the IC50) was calculated by plotting the % effect versus test compound concentration and fitting the data using the Genedata Screener Smart fit algorithm.

The target in a further data set is T2, Human Arginase 2 (Homo sapiens, UniProt P78540).
T2 construct: made in house; host or cells: E. coli
T2 sequence (P78540 23-354): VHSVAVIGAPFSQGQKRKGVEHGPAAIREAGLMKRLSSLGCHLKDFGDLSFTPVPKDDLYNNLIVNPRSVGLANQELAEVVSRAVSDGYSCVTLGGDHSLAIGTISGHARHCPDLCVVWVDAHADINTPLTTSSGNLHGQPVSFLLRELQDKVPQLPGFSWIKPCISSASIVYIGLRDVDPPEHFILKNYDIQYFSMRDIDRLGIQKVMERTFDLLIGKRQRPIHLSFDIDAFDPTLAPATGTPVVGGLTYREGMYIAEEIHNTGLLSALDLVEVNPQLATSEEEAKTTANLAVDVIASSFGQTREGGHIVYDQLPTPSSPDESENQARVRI
In words: Human Arginase 2 enzyme inhibition (thioarginine/DTNB absorbance at 412 nm). It is filed as biochemical. The settings on record: recombinant enzyme 5 nM, 60 min, room temperature.
Excerpt: as §1, §2, §3, §4, §5, §6

Data set [1] in a line: Bioavailability / pharmacokinetic study in male rats (IV and PO). The class given is in vivo. The following applies: rat; for Vd: read-out: Vdss; for Cmax / Tmax / AUC: PO 5 mg/kg; for bioavailability: 5 mg/kg, pro-drug when dosed as pro-drug, PO vs IV. Here is the method: Example 14 is a prodrug form of Example 1. Examples 19 to 22 and 24 to 26 are prodrugs of example 18. […] Example 19 was formulated in 0.9% w/v saline pH 4 (adjusted with 1 M HCl) for IV dosing. The formulation was dosed at 2 mg/kg by femoral catheter to two male rats each (170-250 g). Jugular vein catheter serial blood samples were taken at 0.033, 0.083, 0.167, 0.5, 1, 2, 4, 8, and 24 hrs post-dose. For PO dosing, Example 19 was formulated in deionized water pH 4 (adjusted with 1 M HCl) and dosed at 5 mg/kg by oral gavage to two male rats each (170-250 g). Serial blood samples were taken by jugular vein catheter at 0.25, 0.5, 1, 1.5, 2, 3, 4, 8, and 24 hrs post dose. Plasma samples were generated from blood using low speed centrifugation. A single set of calibration standards containing Example 18 and Example 19 were prepared by spiking blank plasma. The samples and standards were extracted by precipitation with two volumes of acetonitrile followed by centrifugation. The results obtained were used to determine the Cl (mL/min/kg), Vdss (L/kg), Cmax (μM), AUC (μM h), tmax (h), and % F for both Example 18 and Example 19. Absolute bioavailability was determined by comparing the PO dose normalized AUC of Example 18 when dosed as Example 19, versus the dose normalized IV AUC of Example 18 when dosed as Example 18. Where appropriate, measured, not nominal, doses were used in the calculation. In an analogous fashion, the same procedure was repeated for Examples 14, 20 to 22, and 24 to 26.

The mark [2] stands for this setting: pro-drug in plasma when dosed as pro-drug, IV 2 mg/kg.
Setting [3] is: pro-drug in plasma when dosed as pro-drug.
Where [4] appears, read: plasma, payload when dosed as payload, IV.

For `C[C@H](N)C(=O)N[C@H](C(=O)O)[C@@H](CN)CCCB(O)O` [Example 14, (2S,3R)-3-(aminomethyl)-2-((S)-2-aminopropanamido)-6-boronohexanoic acid], on Human Arginase 1, the IC50 was 2180 nM. Besides, the IC50 at Human Arginase 2 was 3900 nM. In data set [1] (setting [2]), the clearance is 46.1 mL/min/kg and the Vd is 0.47 L/kg. In data set [1] (setting [3]), the Cmax was 130 nM and the Tmax came out at 15 min.

In the case of `NC[C@H](CCCB(O)O)[C@H](N)C(=O)O` [Example 18, (2S,3S)-2-amino-3-(aminomethyl)-6-boronohexanoic acid], the IC50 on Human Arginase 1 is 90 nM. Besides, at Human Arginase 2, the IC50 is 220 nM. In data set [1] (setting [4]), the clearance is 7.3 mL/min/kg and the Vd was 0.38 L/kg.

Take `CC[C@H](C)[C@H](N)C(=O)NC[C@H](CCCB(O)O)[C@H](N)C(=O)O` [Example 22, (2S,3S)-2-amino-3-(((2S,3S)-2-amino-3-methylpentanamido)methyl)-6-boronohexanoic acid]: the IC50 at Human Arginase 1 was 49 nM. The IC50 at Human Arginase 2 is 100 nM. Moreover, the bioavailability in data set [1] (plasma) came out at 4.5%. For the same compound, in data set [1] (setting [2]), the clearance was 13.1 mL/min/kg and the Vd came to 0.2 L/kg. In data set [1] (setting [3]), the AUC was 0.92 µM·h, the concentration peaked (Cmax) at 450 nM and the Tmax was found to be 60 min.

With `CC(C)[C@H](N)C(=O)N[C@H](C(=O)O)[C@H](CN)CCCB(O)O` [Example 26, (2S,3S)-3-(aminomethyl)-2-[[(2S)-2-amino-3-methyl-butanoyl]amino]-6-borono-hexanoic acid], the IC50 at Human Arginase 1 worked out at 2560 nM. At Human Arginase 2, the IC50 came to 2030 nM. Also, in data set [1] (setting [2]), the clearance was determined as 26.6 mL/min/kg and the Vd was 0.15 L/kg.

In the case of `CC(C)[C@H](N)C(=O)NC[C@H](CCCB(O)O)[C@H](N)C(=O)O` [Example 19, (2S,3S)-2-amino-3-(((S)-2-amino-3-methylbutanamido)methyl)-6-boronohexanoic acid], the IC50 at Human Arginase 1 was found to be 60 nM. Besides, the IC50 at Human Arginase 2 was found to be 110 nM. The bioavailability in data set [1] (plasma) came out at 8.3%. For the same compound, in data set [1] (setting [2]), the clearance was determined as 16.4 mL/min/kg and the Vd is 0.47 L/kg. In data set [1] (setting [3]), the AUC turned out to be 1.4 µM·h, the Cmax was determined as 660 nM and the Tmax is 30 min.

For the compound `NC[C@@H](CCCB(O)O)[C@H](N)C(=O)O` [Example 1, (2S,3R)-2-amino-3-(aminomethyl)-6-boronohexanoic acid], the IC50 at Human Arginase 1 was 39 nM. The IC50 at Human Arginase 2 turned out to be 81 nM. Also, in data set [1] (setting [4]), the clearance came to 8.26 mL/min/kg and the Vd came out at 0.46 L/kg.

For the compound `C[C@H](N)C(=O)N[C@H](C(=O)O)[C@H](CN)CCCB(O)O` [Example 25, (2S,3S)-3-(aminomethyl)-2-[[(2S)-2-aminopropanoyl]amino]-6-borono-hexanoic acid], at Human Arginase 1, the IC50 was found to be 68 nM. Besides, on Human Arginase 2, the IC50 came to 150 nM. Also, in data set [1] (setting [2]), the clearance turned out to be 28.3 mL/min/kg and the Vd was 0.18 L/kg. Further, in data set [1] (setting [3]), the peak level (Cmax) was 40 nM and the time to peak (Tmax) was 15 min.

`C[C@H](N)C(=O)NC[C@H](CCCB(O)O)[C@H](N)C(=O)O` [Example 20, (2S,3S)-2-amino-3-(((S)-2-aminopropanamido)methyl)-6-boronohexanoic acid]: the IC50 at Human Arginase 1 was 9 nM. Also, at Human Arginase 2, the IC50 is 140 nM. Also, in data set [1] (plasma), the bioavailability was determined as 5.1%. In addition, in data set [1] (setting [2]), the clearance was determined as 12.5 mL/min/kg and the Vd turned out to be 0.21 L/kg. In data set [1] (setting [3]), the AUC turned out to be 1.25 µM·h, the concentration peaked (Cmax) at 440 nM and the Tmax is 45 min.

Take `CC[C@H](N)C(=O)NC[C@H](CCCB(O)O)[C@H](N)C(=O)O` [Example 21, (2S,3S)-2-amino-3-(((S)-2-aminobutanamido)methyl)-6-boronohexanoic acid]: on Human Arginase 1, the IC50 came to 39 nM. For the same compound, the IC50 on Human Arginase 2 was found to be 61 nM. The compound also registered a bioavailability in data set [1] (plasma) of 1.5%. Further, in data set [1] (setting [2]), the clearance amounted to 14.1 mL/min/kg and the Vd stood at 0.22 L/kg. In data set [1] (setting [3]), the AUC was determined as 0.35 µM·h, the concentration peaked (Cmax) at 230 nM and the Tmax amounted to 30 min.

Take `NCC(=O)NC[C@H](CCCB(O)O)[C@H](N)C(=O)O` [Example 24, (2S,3S)-2-amino-3-((2-aminoacetamido)methyl)-6-boronohexanoic acid]: at Human Arginase 1, the IC50 was found to be 22 nM. On Human Arginase 2, the IC50 turned out to be 65 nM. Also, in data set [1] (plasma), the bioavailability was found to be 6.4%. Besides, in data set [1] (setting [2]), the clearance came to 8.4 mL/min/kg and the Vd is 0.2 L/kg. In data set [1] (setting [3]), the AUC was 2.9 µM·h, the highest concentration (Cmax) amounted to 880 nM and the Tmax amounted to 105 min.

Source of the values: patent publication US20220267356A1, “ARGINASE INHIBITORS AND METHODS OF USE THEREOF” (AstraZeneca AB, priority 2019, published 2022).
